Earlier results, collected in patent US7041008B2, “Golf ball with sulfur cured inner component” (priority 1993, dated 2006).

For `CC(C)(OOC(C)(C)c1ccccc1)c1ccccc1` [dicumyl peroxide], the “Acute oral LD50” value is listed as 4,100 mg/kg.
In the case of `CC1CC(C)(C)CC(OOC(C)(C)C)(OOC(C)(C)C)C1` (stereo not drawn) [1,1-bis(t-butylperoxy)-3,3,5-trimethyl cyclohexane], the “Acute oral LD50” value is listed as >13,000 mg/kg.
For `CCCCOC(=O)CCC(C)(OOC(C)(C)C)OOC(C)(C)C` [n-butyl 4,4-bis(t-butyl-peroxy) valerate], the “Acute oral LD50” value is given as 5,000 mg/kg.
For `CC(C)(C)OOC(=O)c1ccccc1` [t-butyl perbenzoate], the “Acute oral LD50” value is listed as >3,600 mg/kg.
In the case of `O=C1CCCCCN1SSN1CCCCCC1=O` [N,N′-caprolactum disulfide], the “Acute oral LD50” value is given as 3,620 mg/kg.
For `CC(C)(C)OOC(C)(C)CCC(C)(C)OOC(C)(C)C` [2,5-dimethyl-2,5-di(t-butylperoxy) hexane], the “Acute oral LD50” value is listed as >32,000 mg/kg.
In the case of “2,2′-bis(t-butylperoxy)-di-iso-propylbenzene”, the “Acute oral LD50” value is given as >23,000 mg/kg.
In the case of `C1CN(SSN2CCOCC2)CCO1` [4,4″-dithiodimorpholine], the “Acute oral LD50” value is listed as 5,600 mg/kg.
For `O=C(OOC(=O)c1ccccc1)c1ccccc1` [benzoyl peroxide], the “Acute oral LD50” value is listed as >5,000 mg/kg.
